The results in this text go back to ChEMBL document CHEMBL5537110, “SIRT1-dependent mitochondrial biogenesis supports therapeutic effects of 4-butyl-polyhydroxybenzophenone compounds against NAFLD” (Eur J Med Chem, 2023).

Experiment [1] concerns EA.hy 926. The experiment in a line: Cytoprotective activity against H2O2-induced toxicity in human EA.hy 926 cells assessed as protective rate at 10 uM pretreated with compound for 4 hrs followed by incubation with H2O2 for 2 hrs by absorbance based analysis. The settings on record: time 6 hrs. It counts as functional.
Experiment [2] deals with EA.hy 926. The experiment in a line: Cytoprotective activity against H2O2-induced toxicity in human EA.hy 926 cells assessed as protective rate pretreated with compound for 4 hrs followed by incubation with H2O2 for 2 hrs by absorbance based analysis. It counts as functional, cell-based.
Experiment [3] has as its target T1, Peroxisome proliferator-activated receptor gamma coactivator 1-alpha (Homo sapiens) (UniProt Q9UBK2).
T1 sequence (whole entry): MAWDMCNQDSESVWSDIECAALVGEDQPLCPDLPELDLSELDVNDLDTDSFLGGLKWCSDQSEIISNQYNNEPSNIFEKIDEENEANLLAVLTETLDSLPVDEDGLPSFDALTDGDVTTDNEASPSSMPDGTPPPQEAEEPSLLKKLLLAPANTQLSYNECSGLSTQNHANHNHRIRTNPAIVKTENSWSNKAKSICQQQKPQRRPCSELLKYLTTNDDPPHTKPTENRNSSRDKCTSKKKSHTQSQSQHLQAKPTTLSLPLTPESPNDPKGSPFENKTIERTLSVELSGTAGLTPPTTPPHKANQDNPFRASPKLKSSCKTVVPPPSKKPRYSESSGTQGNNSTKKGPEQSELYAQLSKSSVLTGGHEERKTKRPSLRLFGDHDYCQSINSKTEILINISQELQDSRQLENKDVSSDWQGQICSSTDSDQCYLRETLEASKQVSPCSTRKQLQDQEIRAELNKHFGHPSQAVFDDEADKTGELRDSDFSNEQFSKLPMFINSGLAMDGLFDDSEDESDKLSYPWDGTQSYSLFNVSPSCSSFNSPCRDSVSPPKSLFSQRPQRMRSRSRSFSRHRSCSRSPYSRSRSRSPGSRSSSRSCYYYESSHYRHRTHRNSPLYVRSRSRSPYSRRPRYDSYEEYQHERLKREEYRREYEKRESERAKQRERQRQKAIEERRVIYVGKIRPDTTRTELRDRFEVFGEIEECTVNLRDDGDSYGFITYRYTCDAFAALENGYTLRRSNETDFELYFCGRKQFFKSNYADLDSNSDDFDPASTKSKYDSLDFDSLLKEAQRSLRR
Description: Binding affinity to PGC1alpha (unknown origin) by surface plasmon resonance assay. Particulars: filed as activator. A general note: Surface plasmon resonance follows binding to a sensor surface in real time, without labels.

Experiment [4] has as its target T2, NAD-dependent protein deacetylase sirtuin-1 (Homo sapiens) (UniProt Q96EB6).
T2 sequence (whole entry): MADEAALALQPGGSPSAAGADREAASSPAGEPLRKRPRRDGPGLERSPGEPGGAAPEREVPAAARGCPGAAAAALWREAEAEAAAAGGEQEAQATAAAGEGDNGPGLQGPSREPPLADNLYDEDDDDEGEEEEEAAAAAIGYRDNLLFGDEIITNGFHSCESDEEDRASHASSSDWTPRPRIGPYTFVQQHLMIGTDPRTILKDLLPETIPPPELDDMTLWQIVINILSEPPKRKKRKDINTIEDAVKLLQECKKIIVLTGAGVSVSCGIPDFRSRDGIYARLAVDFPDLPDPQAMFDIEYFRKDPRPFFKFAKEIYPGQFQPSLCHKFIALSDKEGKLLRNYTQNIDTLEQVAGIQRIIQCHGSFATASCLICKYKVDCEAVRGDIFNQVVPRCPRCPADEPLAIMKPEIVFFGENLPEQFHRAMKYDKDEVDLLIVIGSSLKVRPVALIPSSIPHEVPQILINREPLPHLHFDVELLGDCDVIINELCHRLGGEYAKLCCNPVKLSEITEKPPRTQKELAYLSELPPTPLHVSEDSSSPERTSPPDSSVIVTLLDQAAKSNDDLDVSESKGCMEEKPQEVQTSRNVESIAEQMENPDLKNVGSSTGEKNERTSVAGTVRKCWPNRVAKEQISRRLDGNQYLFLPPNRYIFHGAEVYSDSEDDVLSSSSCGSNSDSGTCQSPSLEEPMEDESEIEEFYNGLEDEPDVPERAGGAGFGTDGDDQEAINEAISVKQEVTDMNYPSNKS
The experiment in a line: Binding affinity to SIRT1 (unknown origin) by surface plasmon resonance assay. Particulars: filed as activator.

One may read the EC50 as the midpoint of the concentration-response curve.

The source made the active and inactive calls. No cut-off for these calls is given here.

Turning to `COc1cc(O)cc(Cl)c1C(=O)c1ccc(CC(C)C)cc1`, the Activity in the experiment with EA.hy 926 [1] turned out to be 2.99%. Same read-out and setting: to `CC(C)(C)c1ccc(C(=O)c2ccc(O)c(O)c2O)cc1` belongs -6.9%; to `CCCCc1ccc(C(=O)c2c(O)cc(O)cc2Cl)cc1`, 38.47%.

Take `CCCCc1ccc(C(=O)c2c(Cl)cc(O)cc2OC)cc1`: the Activity in the experiment on EA.hy 926 [1] came out at 11.76%.

Turning to `CC(C)Cc1ccc(C(=O)c2cc(O)c(O)cc2F)cc1`, in the experiment with EA.hy 926 [2], the EC50 turned out to be 80.8 nM. In addition, the outcome in experiment [3] and in experiment [4] was Active. The Activity in the experiment on EA.hy 926 [1] is 93.75%. For `CCCCc1ccc(C(=O)c2cc(O)c(Cl)cc2O)cc1`, in the experiment on EA.hy 926 [1], the Activity stood at 21.66%. The same measure, in the same setting: to `CC(C)(C)c1ccc(C(=O)c2cc(O)c(Cl)cc2O)cc1` belongs -67%; to `CCCCc1ccc(C(=O)c2c(O)cc(O)cc2O)cc1`, 36.04%; to `CCCCc1ccc(C(=O)c2cc(O)ccc2O)cc1`, 39.03%.

As for `CC(C)(C)c1ccc(C(=O)c2cc(O)ccc2O)cc1`, the Activity with EA.hy 926 [1] is listed as -7%. Still for that read-out and setting: to `Cc1c(O)ccc(C(=O)c2ccc(CC(C)C)cc2)c1O` belongs 17.37%; to `CC(C)Cc1ccc(C(=O)c2cc(O)ccc2O)cc1`, 8.96%. The same measure, in the same setting: next, `CC(C)Cc1ccc(C(=O)c2cc(O)c(Cl)cc2O)cc1`: -3.92%. Regarding `CCCCc1ccc(C(=O)c2ccc(O)c(O)c2)cc1`, the EC50 in the experiment with EA.hy 926 [2] stood at 84.2 nM. Besides, the result in experiment [3] and in experiment [4] was Active. The Activity in the experiment with EA.hy 926 [1] is 70.59%. As for `CC(C)Cc1ccc(C(=O)c2c(O)cc(O)cc2Cl)cc1`, the Activity in the experiment on EA.hy 926 [1] is recorded as -8.4%.

On to `CC(C)Cc1ccc(C(=O)c2ccc(O)c(O)c2)cc1`, for which, in the experiment with EA.hy 926 [2], the EC50 was 81 nM. Besides, the outcome in experiment [3] and in experiment [4] was Active. For the same compound, the Activity with EA.hy 926 [1] was determined as 93.75%. With `COc1cc(O)cc(Cl)c1C(=O)c1ccc(C(C)(C)C)cc1`, the Activity in the experiment on EA.hy 926 [1] is reported as -64%.

For the compound `CC(C)Cc1ccc(C(=O)c2c(O)cc(O)cc2O)cc1`, in the experiment with EA.hy 926 [1], the Activity stood at 21.63%. Same read-out and setting: next, `CCCCc1ccc(C(=O)c2cc(O)c(O)cc2F)cc1`: 58.82%; `CCCCc1ccc(C(=O)c2ccc(O)c(O)c2O)cc1`: 64.71%.

For the compound `CC(C)Cc1ccc(C(=O)c2ccc(O)c(O)c2O)cc1`, the EC50 with EA.hy 926 [2] was found to be 118 nM. Also, the result in experiment [3] and in experiment [4] was Active. In addition, in the experiment with EA.hy 926 [1], the Activity came out at 93.75%. Regarding `CC(C)(C)c1ccc(C(=O)c2cc(O)c(O)cc2F)cc1`, in the experiment on EA.hy 926 [2], the EC50 came out at 104 nM. Moreover, the outcome in experiment [3] and in experiment [4] was Active. The Activity in the experiment with EA.hy 926 [1] was 80.56%. Turning to `Cc1c(O)ccc(C(=O)c2ccc(C(C)(C)C)cc2)c1O`, in the experiment with EA.hy 926 [1], the Activity is -67.36%. With `O=c1c(O)c(-c2ccc(O)c(O)c2)oc2cc(O)cc(O)c12` [QUERCETIN], in the experiment on EA.hy 926 [2], the EC50 came to 2670 nM. Besides, in the experiment on EA.hy 926 [1], the Activity worked out at 55.2%. Turning to `CC(C)(C)c1ccc(C(=O)c2c(O)cc(O)cc2O)cc1`, in the experiment with EA.hy 926 [1], the Activity is -64%.

With `CCCCc1ccc(C(=O)c2ccc(O)c(C)c2O)cc1`, the Activity with EA.hy 926 [1] is recorded as 2.8%.

Regarding `CC(C)(C)c1ccc(C(=O)c2c(O)cc(O)cc2Cl)cc1`, the Activity with EA.hy 926 [1] is recorded as -49%.
